Experimental data from ChEMBL document CHEMBL5390311, “MAIP: An Open-Source Tool to Enrich High-Throughput Screening Output and Identify Novel, Druglike Molecules with Antimalarial Activity” (ACS Med Chem Lett, 2023).
≈ marks a conversion by molar mass, not a printed value. One block for each molecule: values may come before it.

Experiments:
Plasmodium falciparum [1] = test: Antimalarial activity against Plasmodium falciparum 3D7 assessed as reduction in parasite growth; format: functional, organism-based
Plasmodium falciparum [2] = test: Antimalarial activity against Plasmodium falciparum NF54 assessed as parasite growth inhibition at 2 uM relative to control; format: functional; conditions: read-out: GI
[3] = Octanol/water partition coefficient, logP of the compound; format: physicochemical
[4] = Kinetic solubility of compound in 1-Octanol/PBS at pH 7.4 at 200 uM incubated for 2 hrs by shake flask method; format: physicochemical; conditions: read-out: Kinetic_solubility

SMILES: Oc1cc(CN2CCC(O)(Cn3ccnc3)CC2)nc2c(Cl)cccc12
XC50 (Plasmodium falciparum [1]): 882 nM

SMILES: OC1(CCCNC2CCN(C3CC3)C(c3ccccc3)C2)CCC1 (stereo unspecified)
inhibition of growth at 2 µM (Plasmodium falciparum [2]): -8%

SMILES: COc1ccc(CN2CCN(c3ccncc3C)CC2)cc1Cn1cccn1
inhibition of growth at 2 µM (Plasmodium falciparum [2]): -15%

SMILES: COc1c(C2CCN(CCN3CCC(CNC(=O)c4ccc(-c5ccc(C#N)cc5)cc4)CC3)CC2)ccc2c1CCCC2
XC50 (Plasmodium falciparum [1]): 445 nM

SMILES: CN1CCN(CCCCNC2CC3CCC(C2)N3Cc2ccccc2)CC1 (stereo unspecified)
logP ([3]; read-out: logP): 3.1
solubility kinetic at 2 h, 200 µM [4]: 200 µM (≈ 74.1 µg/mL)

SMILES: CC1(N2CCC2)CCC(NCC2CCN(Cc3ccccc3)C2)CC1 (stereo unspecified)
logP ([3]; read-out: logP): 3.4

SMILES: CC1CCN(Cc2cccc(C(=O)NCc3ccc(F)c(-c4ccc(CN5CCN[C@H](C)C5)cc4)c3)c2)CC1
XC50 (Plasmodium falciparum [1]): 1460 nM

Second part, the molecule after the results:

logP ([3]; read-out: logP): 2.8
SMILES: COc1ccc(-c2cncc(C(=O)NCC3CCN(CCN(C)C)CC3)c2)cc1

logP ([3]; read-out: logP): 3.6
SMILES: Cc1c(CN2CCC(O)(Cn3ccnc3)CC2)[nH]c2c(Cl)cccc12

logP ([3]; read-out: logP): 3
SMILES: Cc1cnccc1N1CCCN(Cc2ccccc2OCCN2CCN(C)CC2)CC1

logP ([3]; read-out: logP): 3.2
solubility kinetic at 2 h, 200 µM [4]: 200 µM (≈ 66.9 µg/mL)
SMILES: c1ccc(-c2ccnc(C3CCN(CC45CNCC4C5)CC3)n2)cc1 (stereo unspecified)

logP ([3]; read-out: logP): 2
solubility kinetic at 2 h, 200 µM [4]: 200 µM (≈ 71.5 µg/mL)
SMILES: CN1CCC(Oc2ccc(NC(=O)c3cn4ccnc4s3)cn2)CC1

logP [3]: 2.5
SMILES: O=C(NC1CCN(CCOc2ccc(Cl)cc2)CC1)c1c[nH]c2ccncc2c1=O
